Test: molar heat capacity at constant pressure
Details: Liquid, Small sample (50 mg) DSC

CCCCCCn1cc[n+](C)c1.F[B-](F)(F)F [1-hexyl-3-methylimidazolium tetrafluoroborate]
molar heat capacity at constant pressure [J/K/mol]
Details	283.15 K	288.15 K	293.15 K	298.15 K	303.15 K	308.15 K	313.15 K	318.15 K	323.15 K
100 kPa	422.77	425	427.34	429.8	432.36	435.03	437.81	440.7	443.69
2000 kPa	422.81	425.04	427.38	429.83	432.39	435.06	437.84	440.72	443.72
4000 kPa	422.85	425.08	427.42	429.87	432.43	435.1	437.87	440.75	443.74
6000 kPa	422.89	425.12	427.46	429.91	432.47	435.13	437.9	440.78	443.77
8000 kPa	422.94	425.17	427.5	429.95	432.5	435.17	437.93	440.81	443.8
10000 kPa	422.98	425.21	427.54	429.99	432.54	435.2	437.97	440.84	443.82
12000 kPa	423.02	425.25	427.59	430.03	432.58	435.23	438	440.87	443.85
14000 kPa	423.07	425.29	427.63	430.07	432.61	435.27	438.03	440.9	443.88
20000 kPa	423.2	425.42	427.75	430.18	432.72	435.37	438.13	440.99	443.96
30000 kPa	423.41	425.63	427.95	430.38	432.91	435.55	438.29	441.14	444.09
40000 kPa	423.63	425.84	428.15	430.57	433.09	435.72	438.45	441.28	444.22
50000 kPa	423.85	426.05	428.36	430.77	433.28	435.89	438.61	441.43	444.35
60000 kPa	424.07	426.26	428.56	430.96	433.46	436.07	438.77	441.58	444.49

CCCCCCCC[n+]1ccn(C)c1.F[B-](F)(F)F [1-methyl-3-octylimidazolium tetrafluoroborate]
molar heat capacity at constant pressure [J/K/mol]
Details	283.15 K	288.15 K	293.15 K	298.15 K	303.15 K	308.15 K	313.15 K	318.15 K	323.15 K
100 kPa	489.23	493.12	496.79	500.26	503.51	506.55	509.38	512	514.41
2000 kPa	489.23	493.12	496.79	500.25	503.5	506.55	509.38	512	514.41
4000 kPa	489.23	493.12	496.79	500.25	503.5	506.54	509.37	512	514.41
6000 kPa	489.24	493.11	496.78	500.24	503.5	506.54	509.37	512	514.41
8000 kPa	489.24	493.11	496.78	500.24	503.49	506.53	509.37	512	514.41
10000 kPa	489.24	493.11	496.78	500.24	503.49	506.53	509.37	511.99	514.41
12000 kPa	489.24	493.11	496.78	500.23	503.48	506.53	509.36	511.99	514.42
14000 kPa	489.24	493.11	496.77	500.23	503.48	506.52	509.36	511.99	514.42
20000 kPa	489.24	493.11	496.76	500.22	503.47	506.51	509.35	511.99	514.42
30000 kPa	489.25	493.1	496.75	500.2	503.45	506.49	509.34	511.98	514.43
40000 kPa	489.26	493.09	496.73	500.18	503.42	506.47	509.32	511.98	514.44
50000 kPa	489.26	493.09	496.72	500.16	503.4	506.45	509.31	511.97	514.44
60000 kPa	489.27	493.08	496.7	500.14	503.38	506.43	509.3	511.97	514.45

Source: the NIST ThermoML archive (doi:10.1021/je9004992)
